Measured values as given in patent publication US20110059953A1, “COMPOUNDS FOR USE IN STABILIZING P53 MUTANTS” (priority 2008, published 2011).

Assays:
[1] = biological target: T1, T-p53C-Y220C (Homo sapiens, UniProt P04637, M133L/N239Y/N268D/V203A/Y220C); test: 1H/15N-HSQC NMR chemical shift binding (KD NMR); settings: KD (@ 20° C.) μM, further NMR studies, some revised values
T1 construct: For all other experiments, the DNA coding for residues 94-312 of T-p53C was inserted into a modified pET24a(+) vector; 6xHis tag + B. stearothermophilus dihydrolipoyl acetyltransferase lipoyl domain (aa 1-85) + TEV site (N, cleaved yes); made in house; host or cells: Escherichia coli BL21 (DE3) or C41 (DE3)
Method: Uniformly ^15N-labelled core domains of T-p53C-Y220C was expressed and purified according to the above described protocol. The low molecular-weight compounds were dissolved in d^6-DMSO to make 10 mM stock solutions. To screen compound mixtures by chemical shift mapping, 10 μl of each of 4 different compounds were mixed together and 25 μl of this mixture was added to 25 μl of D2O and 500 μl of 70 μM T-p53C-Y220C (in 25 mM NaPi, 150 mM NaCl and 5 mM DTT, pH 7.2 ). […] NMR samples were freshly prepared and kept sealed under argon after degassing by repeated cycles of pumping the NMR tube under low pressure (while gently tapping the tube) and returning to atmospheric pressure using a stream of argon gas. This was done to maintain sample stability.
Using Bruker's TopSpin 2.0 software, the number of complex points in t1 was doubled by forward complex linear prediction and shifted squared sine bell window functions were applied to both dimensions prior to zero filling and Fourier transformation. A digital resolution of 2.0 Hz/point in the ^1H frequency dimension and 4.7 Hz/point in the ^15N frequency dimension was used. […] An in-house script was used to analyse chemical shift differences and map these onto PDB protein structures.
For certain compounds an array of different concentrations were used to derive KD values (KD NMR) by fitting a saturation binding equation (Δδ=c+a*[L]/(KD+[L])) to the concentration-dependent chemical shift changes of the relevant shifting peaks.

[2] = biological target: T1, T-p53C-Y220C; test: Thermal denaturation using fluorescence (Sypro Orange); type: binding; settings: 10 μM protein
Method: This was by an adaption of the classical procedure (e.g. ref A6). Thermal unfolding was monitored by the binding of the dye Sypro Orange (5×) using a Rotor-gene 6000 (Corbett Life Science) at 270 K/h in 25 mM NaPi, 150 mM NaCl and 5 mM DTT, pH 7.2 with a protein concentration of 10 μM.
(§1) Where listed, S.E. is the calculated standard error.
as §1

[3] = biological target: T1, T-p53C-Y220C; test: Thermal denaturation using capillary DSC; type: binding; settings: increase in Tm on adding 250 μM of the test compound; 20 μM protein
Method: Differential Scanning calorimetry (DSC) was used to probe the stabilising effect of the ligands on […]. For a reversible two-state system, the melting temperature, Tm, is the transition temperature where the folded and unfolded states are equally populated.
DSC experiments were performed using a Microcal VP-Capillary DSC instrument (Microcal, Amherst, Mass.) with an active cell volume of ˜125 μl. Protein samples were buffer exchanged into 25 mM NaPi, pH 7.2, 150 mM NaCl, 5 mM DTT. This buffer + the respective concentration of ligand/DMSO was used for baseline scans, so that the only difference between sample and reference cell or sample cell in the measurement and both cells in the baseline scan is the presence of the protein. A final concentration of 20 μM T-p53C-Y220C was used. A pressure of 2.5 bars (nitrogen) was applied to the cell. Temperatures from 10 to 85° C. were scanned at a rate of 250° C./h, with a filtering period of 4 seconds and feedback gain/mode set at medium. Data were analysed with ORIGIN software (Microcal).
The following tables show the results of the thermal denaturation studies using capillary DSC, where ΔTm is the increase in Tm on adding 250 μM of the test compound. The Dunnett significance test (P) value given is the calculated probability that the change in Tm is insignificant.

[4] = further studies on compounds described above

SMILES	Kd [1]	ΔTm (° C.) [2, 4]	ΔTm [3]	ΔTm (° C.) ([2]; further compounds)
CCn1c2ccccc2c2cc(C3CC4CN(C)C(=O)C45CCCN35)ccc21 (centres unmarked) [PK226]	113 µM	1.0 °C	1.11 °C	
CCn1c2ccccc2c2cc(CNCCc3ccccc3)ccc21 [PK194]		0.38 °C	0.38 °C	
CCn1c2ccccc2c2cc(CNCCc3c[nH]c4ccccc34)ccc21 [PK193]		0.3 °C	0.3 °C	
COc1ccc(N2CCN(Cc3cc4c(cc3O)[nH]c3ccccc34)CC2)cc1 [PK144]		0.51 °C	0.51 °C	
CCn1c2ccccc2c2cc(CNCCN(C)C)ccc21 [PK207]	200 µM	0.57 °C	0.57 °C	
CCn1c2ccccc2c2cc(CN3CCNCC3)ccc21 [PK198]		0.25 °C	0.25 °C	
CCn1c2ccccc2c2cc(CN3CCCC(N4CCOCC4)C3)ccc21 (centres unmarked) [PK225]		0.55 °C	0.53 °C	
CCn1c2ccccc2c2cc(CNCCCn3cc(C(=O)N4CCOCC4)nn3)ccc21 [PK219]		0.873 °C	0.85 °C	
CCn1c2ccccc2c2cc(CN3CCC(N4CCN(CCO)CC4)CC3)ccc21 [PK205]		0.4 °C	0.4 °C	
CCn1c2ccccc2c2cc(CN(C)C(=O)NC3CCS(=O)(=O)C3)ccc21 (centres unmarked) [PK148]		0.225 °C	0.23 °C	
Cc1ccc(CN2C[C@@H]3C[C@@H](C)N4CCC[C@@]34C2=O)o1 [PK223]		0.40 °C	0.38 °C	
CCn1c2ccccc2c2cc(CNCCCn3ccnc3)ccc21 [PK214]	76 µM			0.9 °C
CCn1c2ccccc2c2cc(CN3CCN(C)C(CCO)C3)ccc21 (centres unmarked) [PK217]		0.493 °C	0.47 °C	
CCCN1CCN(C(C)C(=O)Nc2ccc3c(c2)c2ccccc2n3CC)CC1 (centres unmarked) [PK142]		0.26 °C	0.26 °C	
CCn1c2ccccc2c2cc(CN3CCC(N4CCCCC4)CC3)ccc21 [PK188]		0.39 °C	0.39 °C	
CCn1c2ccccc2c2cc(CN(C)C3CCN(C)CC3)ccc21 [PK178]		0.34 °C	0.5 °C	

SMILES	Kd [1]	ΔTm (° C.) [2, 4]	ΔTm [3]	ΔTm (° C.) ([2]; further compounds)
[2H]C(=O)Nc1ccc(OC)c(S(N)(=O)=O)c1 [PK292]				0.154 °C
CCn1cc(C(=O)OC)c2ccccc21 [PK339]				0.4 °C
CCn1c2ccccc2c2cc(CNCCNCCO)ccc21 [PK392]				0.70 °C
CCn1c2ccccc2c2cc(CN3CCC(n4cc(C(=O)NCCO)nn4)CC3)ccc21 [PK221]		0.54 °C	0.52 °C	
CCOC(=O)c1c(C)n(CC)c2ccc(OC(=O)Nc3ccc(Cl)cc3)cc12 [PK246]				0.31 °C
CCN(CCN(C)C)Cc1ccc2c(c1)c1ccccc1n2CC [PK189]		0.23 °C	0.23 °C	
CCCn1cc(CCN)c2cc(OCC)ccc21 [PK408]				0.26 °C
COc1ccc2c(c1)c(C(=O)NC(C)C(C)C)c(C)n2C1CC1 (centres unmarked) [PK277]				0.34 °C
CCn1c2ccccc2c2cc(CN3CCC4(CC3)CC4C(=O)NCCc3ccccn3)ccc21 (centres unmarked) [PK220]		0.68 °C	0.64 °C	
[2H]NNS(=O)(=O)c1cccc(C(F)(F)F)c1 [PK255]				0.26 °C
COc1ccc2c(c1)c(C(=O)OC(C(N)=O)c1ccccc1)c(C)n2C1CC1 (centres unmarked) [PK294]				0.064 °C
CCn1cc(C(=O)OCC(=O)NC(=O)NCc2ccco2)c2ccccc21 [PK273]				0.28 °C
CCn1c(C)c(C(=O)NCCN(C)C)c2cc(OC)ccc21 [PK402]				0.19 °C
CCn1cc(C(=O)Nc2c(C)nn(C)c2C)c2ccccc21 [PK313]				0.28 °C
[2H]NNS(=O)(=O)c1ccc(C(=O)OC)cc1 [PK281]				0.43 °C
CNCc1ccc2c(c1)c1ccccc1n2CCCl [PK229]				0.7 °C

Next, values leading:

Kd [1]	ΔTm (° C.) [2, 4]	ΔTm [3]	ΔTm (° C.) ([2]; further compounds)	SMILES
	0.54 °C	0.54 °C		CCn1c2ccccc2c2cc(NC(=O)COC(=O)c3ccc(-n4cnnn4)cc3)ccc21 [PK138]
	0.39 °C	0.39 °C		CCn1c2ccccc2c2cc(NC(=O)COC(=O)Cn3cnc4c3c(=O)n(C)c(=O)n4C)ccc21 [PK114]
	0.3 °C	0.29 °C		CCn1c2ccccc2c2cc(NC(=O)COC(=O)c3cc(C(=O)OC)cc([N+](=O)[O-])c3)ccc21 [PK137]
	0.46 °C	0.47 °C		CCn1c2ccccc2c2cc(NC(=O)CN(CC(N)=O)C(C)C)ccc21 [PK161]
	0.4 °C	0.4 °C		CCn1c2ccccc2c2cc(NC(=O)C(C)OC(=O)c3ccc(-n4cnnn4)cc3)ccc21 (centres unmarked) [PK134]
	0.513 °C	0.51 °C		CCn1c2ccccc2c2cc(NC(=O)COC(=O)c3ccc(NC(=O)CC#N)cc3)ccc21 [PK140]
	0.48 °C	0.48 °C		CCn1c2ccccc2c2cc(NC(=O)CCc3c(C)[nH]c(=O)c(C#N)c3C)ccc21 [PK141]
	0.37 °C	0.37 °C		CCn1c2ccccc2c2cc(NC(=O)CN3C(=O)NC(C)(c4ccc(C)cc4)C3=O)ccc21 (centres unmarked) [PK110]
	0.22 °C	0.22 °C		CCn1c2ccccc2c2cc(NC(=O)C(C)N3CCN(CC(N)=O)CC3)ccc21 (centres unmarked) [PK152]
	0.53 °C	0.53 °C		CCn1c2ccccc2c2cc(NC(=O)CSc3nnc(N)s3)ccc21 [PK099]
	0.49 °C	0.49 °C		CCn1c2ccccc2c2cc(NC(=O)Cc3ccc(S(=O)(=O)N4CCOCC4)s3)ccc21 [PK115]
	0.37 °C	0.37 °C		CCn1c2ccccc2c2cc(NC(=S)Nc3cc(S(=O)(=O)N(C)C)ccc3C)ccc21 [PK102]
	0.48 °C	0.48 °C		CCn1c2ccccc2c2cc(NC(=O)C(C)OC(=O)c3ccc([N+](=O)[O-])o3)ccc21 (centres unmarked) [PK119]
	0.24 °C	0.24 °C		CCn1c2ccccc2c2cc(NC(=O)C(C)Sc3nc(N)cc(=O)[nH]3)ccc21 (centres unmarked) [PK143]
	0.51 °C	0.51 °C		CCn1c2ccccc2c2cc(CN(C)C(=O)c3nccnc3N)ccc21 [PK164]
	0.64 °C	0.64 °C		CCn1c2ccccc2c2cc(NC(=O)c3ccc(OCC(N)=O)cc3)ccc21 [PK166]
	0.4 °C	0.41 °C		CCNC(=S)Nc1ccc2c(c1)c1ccccc1n2CC [PK168]
		0.39 °C		CCn1c2ccccc2c2cc(NC(=O)CSc3nccc(=O)[nH]3)ccc21 [PK095]
			0.145 °C	CCn1c2ccccc2c2cc(NC(=O)C(C)OC(=O)c3n[nH]c(=O)c4ccccc34)ccc21 (centres unmarked) [PK133]
	0.42 °C	0.42 °C		CCn1c2ccccc2c2cc(NC(=O)CN3C(=O)NC(C)(c4ccc(OC)cc4)C3=O)ccc21 (centres unmarked) [PK160]
	0.63 °C	0.63 °C		CCn1c2ccccc2c2cc(NC(C)C(=O)NC(N)=O)ccc21 (centres unmarked) [PK158]
			0.36 °C	CCOC(=O)/C=C/C(=O)OCC(=O)Nc1ccc2c(c1)c1ccccc1n2CC [PK113]
	0.24 °C		0.27 °C	CCn1c2ccccc2c2cc(NC(=O)COc3ccc([N+](=O)[O-])nc3)ccc21 [PK163]
	0.47 °C	0.47 °C		CCn1c2ccccc2c2cc(NC(=O)CN3C(=O)c4ccccc4S3(=O)=O)ccc21 [PK117]
